One experiment has as its target T1, human liver cathepsin D (Homo sapiens, UniProt P07339).
T1 construct: human liver cathepsin D (Calbiochem); purchased Calbiochem; host or cells: human liver
The experiment in a line: High-throughput fluorometric cathepsin D assay (library screen). Format: biochemical. Conditions: crude compound, approximate concentration; for inhibition at 0.1 µM: 100 nM inhibitor; for inhibition at 0.33 µM: 330 nM inhibitor, read-out: Inhibition of Cathepsin D in Library Screen. The text has this: Compounds capable of inhibiting cathepsin D can readily be identified using the assays described herein which measure a change in the hydrolysis of a peptide substrate. More particularly, a fluorometric high through-put assay for activity toward human liver cathepsin D (Calbiochem) can be used to screen the compounds of the present invention for their ability to inhibit cathepsin D. This assay was previously described by G. A. Kraft, et al., Methods Enzymol. 241, 70-86 (1994), the teachings of which are incorporated herein by reference. […] T. Baldwin, et al., Proc. Natl. Acad. Sci., U.S.A. 90, 6796-6800 (1993)). Generally, the reactants are mixed, the reaction is allowed to proceed for a specific period of time and the fluorescence of the reaction products is monitored to determine the extent to which the peptide substrate has been cleaved. […] 241, 70-86 (1994). As such, following the methods of the present invention, compounds can be readily synthesized and screened to identify compounds that inhibit cathepsin D. Briefly, a fluorometric high through-put assay for activity toward human liver cathepsin D (Calbiochem) was performed in 96-well microtiter plates (G. A. Krafft, et al., Methods Enymol. 241, 70-86 (1994)). […] T. Baldwin, et al., Proc. Natl. Acad. Sci., U.S.A. 90, 6796-6800 (1993)). The assay was performed in […] Microfluor fluorescence microtiter plates, and readings were taken on a Perkin-Elmer LS-50B with an attached 96-well plate reader. The excitation wavelength was 340 nm. A 340 nm interference filter (Hoya, U-340) for excitation and a 430 nm cut-off filter for emission were used. […] The fluorescent unit readings were taken at three time points within the linear region of the substrate cleavage, and percent activity of the enzyme was determined by comparing the change of fluorescent units (FU) for each well to the average change in FU for six control wells without inhibitor.

The target of the next experiment is cathepsin D (Homo sapiens, UniProt P07339). Briefly: Cathepsin D cuvette assay for IC50 and inhibition constants (Ki). Format: biochemical. From the text: Compounds capable of inhibiting cathepsin D can readily be identified using the assays described herein which measure a change in the hydrolysis of a peptide substrate. More particularly, a fluorometric high through-put assay for activity toward human liver cathepsin D (Calbiochem) can be used to screen the compounds of the present invention for their ability to inhibit cathepsin D. This assay was previously described by G. A. Kraft, et al., Methods Enzymol. 241, 70-86 (1994), the teachings of which are incorporated herein by reference. […] T. Baldwin, et al., Proc. Natl. Acad. […] Generally, the reactants are mixed, the reaction is allowed to proceed for a specific period of time and the fluorescence of the reaction products is monitored to determine the extent to which the peptide substrate has been cleaved. […] 241, 70-86 (1994). As such, following the methods of the present invention, compounds can be readily synthesized and screened to identify compounds that inhibit cathepsin D. [table]
cathepsin D, sequence (P07339 65-412): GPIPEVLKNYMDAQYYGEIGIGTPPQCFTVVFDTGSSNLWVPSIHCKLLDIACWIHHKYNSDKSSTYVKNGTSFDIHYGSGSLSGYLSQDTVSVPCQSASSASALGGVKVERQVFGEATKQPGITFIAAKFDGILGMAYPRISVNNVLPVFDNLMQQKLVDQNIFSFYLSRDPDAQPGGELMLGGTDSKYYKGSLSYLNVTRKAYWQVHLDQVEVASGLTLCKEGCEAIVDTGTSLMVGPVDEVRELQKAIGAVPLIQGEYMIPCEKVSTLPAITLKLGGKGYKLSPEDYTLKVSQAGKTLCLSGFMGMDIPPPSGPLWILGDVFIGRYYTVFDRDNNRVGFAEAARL

[1] abbreviates: Table IV, substrate 2.5 μM, cathepsin D 10 nM, Ki ≈ IC50 − Et/2.
Where [2] appears, read: Table V second generation, conditions as Table IV.
Setting [3] is: Table V second generation, conditions as Table IV, Ki ≈ IC50 − Et/2.
The mark [4] stands for this setting: Table VI, P1-varied 204 compound library, purified.

T1 sequence (P07339 169-412 limits assumed): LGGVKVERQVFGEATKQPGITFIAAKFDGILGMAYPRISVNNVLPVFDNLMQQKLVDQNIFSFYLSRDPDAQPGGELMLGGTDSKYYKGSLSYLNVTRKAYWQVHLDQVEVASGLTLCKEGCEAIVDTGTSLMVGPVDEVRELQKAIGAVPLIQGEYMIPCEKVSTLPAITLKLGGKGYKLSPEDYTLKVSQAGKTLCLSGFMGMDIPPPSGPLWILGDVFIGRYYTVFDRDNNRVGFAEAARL
T1 sequence (P07339 65-162 limits assumed): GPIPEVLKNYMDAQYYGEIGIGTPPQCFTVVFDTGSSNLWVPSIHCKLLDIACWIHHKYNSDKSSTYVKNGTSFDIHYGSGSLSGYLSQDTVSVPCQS

As for `O=C(CCn1c(=O)oc2ccccc21)N[C@@H](Cc1ccccc1)[C@@H](O)CN(CCc1ccc2c(c1)OCO2)C(=O)CCc1ccc(Cl)c(Cl)c1` [EFA], on human liver cathepsin D, the inhibition at 0.1 µM is not below 50% and the inhibition at 0.33 µM was not below 50%. Further, the Ki at cathepsin D (setting [1]) is 0.171 ± 0.025 µM.
For `O=C(CCn1c(=O)oc2ccccc21)N[C@@H](Cc1ccccc1)[C@@H](O)CN(CCc1ccc2c(c1)OCO2)C(=O)CCN1C(=O)c2ccccc2C1=O` [EHA], on human liver cathepsin D, the inhibition at 0.1 µM was not below 50% and the inhibition at 0.33 µM is not below 50%. Also, affinity on cathepsin D (setting [1]) was put at a Ki of 0.131 ± 0.012 µM.
With `O=C(COc1cc(Cl)c(Cl)cc1Cl)N[C@@H](Cc1ccccc1)[C@@H](O)CN(CCc1ccc2c(c1)OCO2)C(=O)CCN1C(=O)c2ccccc2C1=O` [EHD], on human liver cathepsin D, the inhibition at 0.1 µM was not below 50% and the inhibition at 0.33 µM is not below 50%. For the same molecule, the affinity at cathepsin D (setting [1]) corresponds to a Ki of 0.073 ± 0.009 µM.
Turning to `COc1ccc(C(=O)N[C@@H](Cc2ccccc2)[C@@H](O)CN(CCc2ccc3c(c2)OCO3)C(=O)CCN2C(=O)c3ccccc3C2=O)c(Cl)c1OC` [EHJ], at human liver cathepsin D, the inhibition at 0.1 µM was not below 50% and the inhibition at 0.33 µM was not below 50%. On cathepsin D (setting [1]), this molecule had a Ki of 0.111 ± 0.008 µM.
At cathepsin D (setting [2]), `O=C(COc1ccc(Cl)cc1Cl)N[C@@H](Cc1ccccc1)[C@@H](O)CN(CCc1ccc2c(c1)OCO2)C(=O)CCN1C(=O)c2ccccc2C1=O` [EHM] yielded an IC50 of 0.014 ± 0.002 µM. This molecule showed a Ki at cathepsin D (setting [3]) of 0.009 µM.
For `O=C(COc1ccc(Cl)c(Cl)c1)N[C@@H](Cc1ccccc1)[C@@H](O)CN(CCc1ccc2c(c1)OCO2)C(=O)CCN1C(=O)c2ccccc2C1=O` [EHO], in that order: 0.019 ± 0.002 µM and 0.015 µM.
The matching figures for `O=C(COc1cccc(Cl)c1)N[C@@H](Cc1ccccc1)[C@@H](O)CN(CCc1ccc2c(c1)OCO2)C(=O)CCN1C(=O)c2ccccc2C1=O` [EHR]: 0.02 ± 0.002 µM and 0.015 µM.
For `COc1cc(Br)c(C(=O)N[C@@H](Cc2ccccc2)[C@@H](O)CN(CCc2ccc3c(c2)OCO3)C(=O)CCN2C(=O)c3ccccc3C2=O)cc1OC` [EHS], in that order: 0.064 ± 0.006 µM and 0.059 µM.
For `O=C(CCn1c(=O)oc2ccccc21)N[C@@H](Cc1ccccc1)[C@@H](O)CN(CCc1ccc(Cl)cc1Cl)C(=O)CCN1C(=O)c2ccccc2C1=O` [FHA], on human liver cathepsin D, the inhibition at 0.1 µM was not below 50% and the inhibition at 0.33 µM is not below 50%. On cathepsin D (setting [1]), this molecule showed a Ki of 0.231 ± 0.031 µM.
Consider `O=C(COc1ccc(Cl)c(Cl)c1)N[C@@H](Cc1ccccc1)[C@@H](O)CN(CCc1ccc(Cl)cc1Cl)C(=O)CCN1C(=O)c2ccccc2C1=O` [FHO], for which, on cathepsin D (setting [2]), the IC50 was determined as 0.018 ± 0.002 µM. The Ki at cathepsin D (setting [3]) was 0.014 µM.
For the molecule `COc1cc(Br)c(C(=O)N[C@@H](Cc2ccc3ccccc3c2)[C@@H](O)CN(CCc2ccc(Cl)cc2Cl)C(=O)CCN2C(=O)c3ccccc3C2=O)cc1OC` [Gbcf], on cathepsin D (setting [4]), the inhibition constant (Ki) was 0.0026 ± 0.0002 µM.
On the same count and under the same terms, in the case of `COc1cc(Br)c(C(=O)N[C@@H](Cc2cccc(Oc3ccccc3)c2)[C@@H](O)CN(CCc2ccc(Cl)cc2Cl)C(=O)CCN2C(=O)c3ccccc3C2=O)cc1OC` [Kbcf] it was 0.0019 ± 0.0002 µM; in that of `COc1cc(Br)c(C(=O)N[C@@H](Cc2ccc(-c3ccccc3)cc2)C(O)CN(CCc2ccc(Cl)cc2Cl)C(=O)CCN2C(=O)c3ccccc3C2=O)cc1OC` (stereo partly shown) [Obcf], 0.0026 ± 0.0002 µM; in that of `COc1cc(Br)c(C(=O)N[C@@H](Cc2ccc(Br)cc2)[C@@H](O)CN(CCc2ccc(Cl)cc2Cl)C(=O)CCN2C(=O)c3ccccc3C2=O)cc1OC` [Qbcf], 0.0067 ± 0.0007 µM.
On cathepsin D (setting [2]), `Cc1ccc(CCN(C[C@H](O)[C@H](Cc2ccccc2)NC(=O)COc2cc(Cl)c(Cl)cc2Cl)C(=O)CCN2C(=O)c3ccccc3C2=O)cc1` [UHD] had an IC50 of 0.229 ± 0.044 µM. On cathepsin D (setting [3]), this molecule showed a Ki of 0.224 µM.

Usually inhibition stands for the percentage by which the read-out fell short of the control. What is called Ki is the equilibrium dissociation constant of an inhibitor or competing ligand from its target. What is called IC50 is the midpoint of a concentration-inhibition curve. A lower IC50 goes with greater potency.

For the origin of these results see patent US7119105B2, “Methods for treating neurodegenerative disorders using aspartyl protease inhibitors” (The Regents of the University of California, priority 1997, dated 2006).
